Substitutions are numbered along the chain they refer to.
Legend:
[1] = target: T1, GLP-2R Y252^ECL1A (Homo sapiens, UniProt O95838, Y252A); experiment: radioligand competition binding, Y252^ECL1A; design: WT (1–553); expressed in transfected cells; conditions: COS-7, Y252^ECL1A; [^125I]GLP-2(1–33, M10Y) 10–15 pM, 4 h, 4 °C; mean ± SEM, n ≥ 3 in duplicate
T1 sequence (O95838 1-553 Y252A): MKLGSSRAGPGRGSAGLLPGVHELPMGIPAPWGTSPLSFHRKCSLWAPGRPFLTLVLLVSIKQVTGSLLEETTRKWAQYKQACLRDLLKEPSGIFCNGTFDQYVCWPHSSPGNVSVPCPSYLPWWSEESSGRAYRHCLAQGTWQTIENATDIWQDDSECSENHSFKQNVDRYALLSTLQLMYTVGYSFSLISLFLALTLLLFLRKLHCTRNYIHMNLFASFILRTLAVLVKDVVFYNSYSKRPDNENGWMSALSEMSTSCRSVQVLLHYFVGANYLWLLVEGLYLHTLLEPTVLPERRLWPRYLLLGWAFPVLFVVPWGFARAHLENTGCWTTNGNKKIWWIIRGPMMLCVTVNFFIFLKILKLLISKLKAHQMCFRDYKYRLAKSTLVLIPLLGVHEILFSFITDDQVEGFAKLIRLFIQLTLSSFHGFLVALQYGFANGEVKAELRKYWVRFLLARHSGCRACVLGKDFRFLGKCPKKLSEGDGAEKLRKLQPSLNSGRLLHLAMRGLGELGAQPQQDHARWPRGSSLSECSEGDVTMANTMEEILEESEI
Method: A stepwise oxidation reaction was performed by addition of 6 aliquots of 5 µL ChloramineT (30 µL/mL) with a 1-min interval during constant stirring. The reaction was terminated by the addition of 400 µL phase A (0.1% trifluoracetic acid) before being fractionated into 1 mL volume by reverse-phase high-performance liquid chromatography (RP-HPLC, Waters 600 SimiPrep system) on a C18 column. The iodinated protein was […] by increasing concentrations of phase B (Acetonitrile + 0.1% TFA) and tested for competitive binding ability.
One day before transfection, the COS-7 cells were seeded in 75 cm^2 culture flasks (3 million cells/flask) in DMEM, containing 3.9 g/L NaHCO3 and supplemented with 10% FBS, 1% L-glutamine, 180 units/mL penicillin and 45 µg/mL streptomycin. After an overnight culture at 37 °C, 10% CO2 and 95% air humidity, the cells were transiently transfected with different GLP-2R constructs or pcDNA3.1 vector as previously described.[52] Following 24-h incubation, the cells were transferred to Costa® microtiter plates (150,000 cells/well, PerkinElmer) to achieve a 5%–10% specific binding. […] The cells were then washed twice in binding buffer (4 °C), lysed and counted for radioactivity using a Wallac Gamma Counter (PerkinElmer).

[2] = target: T2, GLP-2R K231^2.67A (Homo sapiens, UniProt O95838, K231A); experiment: cAMP accumulation, K231^2.67A; format: cell-based; design: WT (1–553); expressed in transfected cells; HEK 293T (cAMP); conditions: Table S3, K231A; HEK 293T, 30 min, RT; mean ± SEM, n ≥ 3 in duplicate; read-out: cAMP Emax (% WT)
T2 sequence (O95838 1-553 K231A): T1 sequence (O95838 1-553 Y252A) with K231A, A252Y
Method: HEK 293T cells were cultured in Dulbecco’s Modified Eagle’s Medium (DMEM) (Gibco, Waltham, USA) supplemented with 10% (v/v) fetal bovine serum (FBS) (Gibco) and 1% (v/v) sodium pyruvate (Gibco) at 37 °C, 5% CO2 in a humidified incubator. They were seeded onto 6-well cell culture plates and transiently transfected with different GLP-2R constructs using Lipofectamine 2000 transfection reagent (Invitrogen, Carlsbad, CA, USA). After 24 h, the transfected cells were seeded onto 384-well microtiter plates (3000 cells per well) in HBSS supplemented with 5 mM HEPES, 0.1% (w/v) bovine serum albumin (BSA) and 0.5 mM 3-isobutyl-1- methylxanthine, and stimulated with increasing concentrations of GLP-2 for 30 min at RT. Eu and Ulight were diluted by cAMP detection buffer and added to the plates separately to terminate the reaction. Plates were incubated at RT for 60 min before measuring the fluorescence intensity at 620 nm and […] by an EnVision multilabel plate reader (PerkinElmer, Boston, USA).

## CC[C@H](C)[C@H](NC(=O)[C@H](Cc1ccccc1)NC(=O)[C@H](CC(=O)O)NC(=O)[C@H](CCCNC(=N)N)NC(=O)[C@H](C)NC(=O)[C@H](C)NC(=O)[C@H](CC(C)C)NC(=O)[C@H](CC(N)=O)NC(=O)[C@H](CC(=O)O)NC(=O)[C@H](CC(C)C)NC(=O)[C@@H](NC(=O)[C@@H](NC(=O)[C@H](CC(N)=O)NC(=O)[C@H](CCSC)NC(=O)[C@H](CCC(=O)O)NC(=O)[C@H](CC(=O)O)NC(=O)[C@H](CO)NC(=O)[C@H](Cc1ccccc1)NC(=O)[C@H](CO)NC(=O)CNC(=O)[C@H](CC(=O)O)NC(=O)[C@H](C)NC(=O)[C@@H](N)Cc1c[nH]cn1)[C@@H](C)O)[C@@H](C)CC)C(=O)N[C@@H](CC(N)=O)C(=O)N[C@@H](Cc1c[nH]c2ccccc12)C(=O)N[C@@H](CC(C)C)C(=O)N[C@H](C(=O)N[C@@H](CCC(N)=O)C(=O)N[C@H](C(=O)N[C@@H](CCCCN)C(=O)N[C@H](C(=O)N[C@H](C(=O)N[C@@H](CC(=O)O)C(=O)O)[C@@H](C)O)[C@@H](C)CC)[C@@H](C)O)[C@@H](C)CC [Human GLP-2 (1–33)]
[1]
  % Binding of WT: 8.3 ± 1.8 %
[2]
  Emax: 105 ± 3%

## CC[C@H](C)[C@H](NC(=O)[C@H](Cc1ccccc1)NC(=O)[C@H](CC(=O)O)NC(=O)[C@H](CCCNC(=N)N)NC(=O)[C@H](C)NC(=O)[C@H](C)NC(=O)[C@H](CC(C)C)NC(=O)[C@H](CC(N)=O)NC(=O)[C@H](CC(=O)O)NC(=O)[C@H](CC(C)C)NC(=O)[C@@H](NC(=O)[C@@H](NC(=O)[C@H](CC(N)=O)NC(=O)[C@H](CCSC)NC(=O)[C@H](CCC(=O)O)NC(=O)[C@H](CC(=O)O)NC(=O)[C@H](CO)NC(=O)[C@H](Cc1ccccc1)NC(=O)[C@H](CO)NC(=O)CNC(=O)[C@H](CC(=O)O)NC(=O)CNC(=O)[C@@H](N)Cc1c[nH]cn1)[C@@H](C)O)[C@@H](C)CC)C(=O)N[C@@H](CC(N)=O)C(=O)N[C@@H](Cc1c[nH]c2ccccc12)C(=O)N[C@@H](CC(C)C)C(=O)N[C@H](C(=O)N[C@@H](CCC(N)=O)C(=O)N[C@H](C(=O)N[C@@H](CCCCN)C(=O)N[C@H](C(=O)N[C@H](C(=O)N[C@@H](CC(=O)O)C(=O)O)[C@@H](C)O)[C@@H](C)CC)[C@@H](C)O)[C@@H](C)CC [Teduglutide]
[1]
  % Binding of WT: 6.3 ± 1.7 %
